# Patent US20030003583A1, “Regulation of transgene expression following AAV transduction” (priority 2001, published 2003)
# Residues, ends and D or L forms follow the SMILES beside them. *: point of attachment. Cbz = O=C(OCc1ccccc1)*
# Experiments:
# proteasome = conditions: cited from earlier work
# [1] = tested on: human type B synoviocyte cultures infected with rAAV(mIL-4); test: Real-time PCR of transgene mRNA in human type B synoviocytes infected with rAAV(mIL-4); format: cell-based; conditions: 40 μM zLLL for 24 hours
# Protocol: Human type B synoviocyte cultures were infected with rAAV(mIL-4). Ten days later, some cells were exposed to 40 μM of zLLL for 24 hours. Cells were harvested and RNA was extracted, reverse transcribed, and subjected to real-time PCR using a LightCycler™ System (Roche Molecular Biochemicals, Indianapolis, Ind.) with the FastStart DNA Master SYBR Green I reaction mix and gene specific primers. LIGHTCYCLER Quantification Software v5.32 was used to compare amplification in the samples during the log-linear phase. Data are normalized to the AAV(mIL-4) samples, which are given a value of 1. The ZLLL group was not infected with AAV (IL-4).
# Synoviocytes transduced with AAV(mIL-4) were exposed to zLLL and RNA was extracted and subjected to real-time PCR. zLLL induced a 250-fold increase in mIL-4 mRNA with no increase in the constituitively-expressed gene, GAPDH (FIG. 4).
# [2] = tested on: RA synovium implanted into SCID mice; test: Luciferase expression in RA synovium implanted into SCID mice, injected with AAV(Luc), after in vivo zLLL; conditions: zLLL into the synovial tissue or intraperitoneally two weeks after AAV(Luc); tissue removed 48 hours later
# Protocol: RA synovium was implanted into SCID mice. Two weeks later, synovial tissues were injected with 6.8×10^10 particles of AAV(Luc). Two weeks following rAAV administration, zLLL was administered in a 100 μl volume either directly into the synovial tissue or intraperitoneally. Synovial tissues were removed 48 hours later, homogenized, and assayed for luciferase content.
# The optimal in vivo dose and route of administration is unclear from this preliminary study and will be addressed in the proposed experiments.
# [3] = tested on: human type B synoviocytes infected with rAAV(mIL-10); test: Mouse IL-10 transgene expression (ELISA of supernatants) in human type B synoviocytes infected with rAAV(mIL-10); format: cell-based
# Protocol: Synoviocytes were infected with rAAV on day 0. On day 1, cells were exposed to the indicated amounts of zLLL for 24 hours. Supernatants were harvested on days 3 and 7 and assayed by ELISA for mouse IL-10.
# Synoviocytes were infected with rAAV on day 0. At various times (indicted by the arrows), some cells were exposed to 40 μM of zLLL for 24 hours (A) or to recombinant adenovirus lacking a transgene (B). Supernatants were harvested and assayed by ELISA for mouse IL-10.
# Kwon, C. Mah, and A. Srivastava. 2000. Impaired intracellular trafficking of adeno-associated virus type 2 vectors limits efficient transduction of murine fibroblasts. J Virol 74:992-996) to determine whether human synoviocytes could be made to express a transgene following AAV-mediated gene transfer. […] This is inconsistent with the proposed mechanism of action of zLLL, that of increasing viral trafficking to the nucleus, as transgene expression should be stable once the viral genome reaches the nucleus and sufficient second strand synthesis occurs.
# (§1) To further explore this finding, synovial cells were re-exposed to zLLL following the loss of transgene expression. […] In each case, expression peaked 2-3 days following exposure to zLLL and then dropped off. We were able to re-induce transgene expression as far out as 25 days after infection. We have not yet looked at further time points, but we can already conclude that the transgene persists in the synoviocytes for an extended period of time and that its expression can be regulated by zLLL.
# This is inconsistent with the proposed mechanism of action of zLLL, that of increasing viral trafficking to the nucleus, as transgene expression should be stable once the viral genome reaches the nucleus and sufficient second strand synthesis occurs.
# as §1, with “reinduce” for “re-induce”
# other cell types = conditions: cited from earlier work
# mouse lungs = conditions: in vivo; cited from earlier work
Compound,specificity for the proteasome / other proteases inhibited (proteasome),change in constitutively expressed gene GAPDH mRNA [1],"increase in mIL-4 mRNA ([1]; ten days after infection, normalized to AAV(mIL-4) samples) [fold]",in vivo transgene (luciferase) expression [2],transgene expression on re-exposure after loss of expression ([3]; 40 μM zLLL for 24 hours at various times),"expression of a mouse IL-10 transgene ([3]; 3 days following infection with rAAV, zLLL for 24 hours on day 1, dose dependent)","expression of mouse IL-10 transgene by day 7 ([3]; day 7 after infection, single 24 h zLLL exposure on day 1)",latest time after infection at which transgene expression was re-induced ([3]; days after infection) [days],time of peak expression following exposure ([3]; following each exposure to zLLL) [days],nuclear accumulation of rAAV particles and the rAAV genome (other cell types),rAAV-mediated transduction in mouse lungs (mouse lungs)
CC(=O)N[C@@H](CSC(=O)[C@]1([C@@H](O)C(C)C)NC(=O)[C@H](C)[C@@H]1O)C(=O)O [Lactacystin],high specificity for the proteasome,–,–,–,–,–,–,–,–,–,–
"CC(C)C[C@@H](C=O)NC(=O)[C@H](CC(C)C)NC(=O)[C@H](CC(C)C)NC(=O)OCc1ccccc1 [zLLL, Carbobenzoxyl-L-leucyl-L-leucyl-L-leucinal] (Cbz-Leu-Leu-Leu-aldehyde)",can also inhibit certain lysosomal cysteine proteases and the calpains,no increase,250,dramatically enhanced,could be repeatedly induced,dramatically enhanced,expression was lost,25,2 to 3,increase nuclear accumulation,enhance rAAV-mediated transduction
